In patent US5789625A, “Metal-ligand complex catalyzed processes” (priority 1996, dated 1998):

Tests used:
[1] = cited from earlier work
[2] = Extraction experiment: partitioning of base from butyraldehyde to equimolar aqueous H3PO3 (Example 5, Table A); type: physicochemical
Experimental: The following series of experiments were performed in order to determine the relationship of the pKa of a base to the effectiveness of the base to remain in the organic phase upon contact with an equimolar aqueous acid solution. In all cases the experiments were performed under nitrogen, unless otherwise specified.
Solutions were prepared by dissolving a quantity of acid or base in solvent so that the final concentration was equal to 0.1 moles/liter. The 1×10^-3 moles/liter solutions were prepared by taking an aliquot of the 0.1 moles/liter solution and diluting to the specified concentration. The 1×10^-5 moles/liter solutions were prepared in the same manner as the 1×10^-3 moles/liter solution with the modification of using an aliquot of the 1×10^-3 moles/liter solution in place of the 0.1 moles/liter solution.
In each extraction experiment, 5 milliliters of base solution in butyraldehyde was added to a clean, dry vial. To this vial was added 5 milliliters of equimolar H3 PO3 solution. The resulting mixture was rapidly shaken for several minutes and then allowed to phase separate. A 1 milliliter aliquot of the aqueous layer was then transferred to a clean, dry vial. To this vial was added 1 milliliter of pH 7 sodium/potassium phosphate buffer and 0.1 milliliter of Tergitol® 15-S-9 surfactant. The solution was shaken vigorously, and an aliquot was analyzed by high performance liquid chromatography for base content. The amount of base was then compared with a dichloromethane solution at the initial concentration. The partition coefficients calculated are for partitioning of the base from the organic phase to the water phase and is defined as K=amount of base in the water phase/amount of base in the organic phase.

[3] = Stability of Ligand F in butyraldehyde solution containing rhodium, by HPLC (Examples 2-4); type: physicochemical; details: for concentration of Ligand F remaining: 0.017 grams phosphorous acid added to 12 gram solution, start 0.39; for change in concentration of Ligand F: no added acid or benzimidazole, 200 ppm rhodium, 0.39 wt% Ligand F in butyraldehyde
[4] = base 1 × 10^-3 moles/liter in butyraldehyde, H3PO3 1 × 10^-3 moles/liter
[5] = base 1 × 10^-5 moles/liter in butyraldehyde, H3PO3 1 × 10^-5 moles/liter

SMILES | pKa of base [1] | K (amount of base in the water phase/amount of base in the organic phase) [2, 4] | K (amount of base in the water phase/amount of base in the organic phase) [2, 5] | concentration of Ligand F remaining ([3]; 24 hours) | concentration of Ligand F remaining ([3]; 72 hours) | change in concentration of Ligand F ([3]; 24 hours) | change in concentration of Ligand F ([3]; 72 hours)
O=C1CCCN1Cc1ccccc1 [1-benzyl-2-pyrrolidinone] | -0.7 | – | – | – | – | – | –
c1ccc(Cc2ccccn2)cc1 [2-benzylpyridine] | – | 0.22 | 0.30 | – | – | – | –
CC(=O)c1cccnc1 [3-acetylpyridine] | 3.3 | 0.93 | 0.00 | – | – | – | –
CC(C)(C)c1cc(-c2cc(C(C)(C)C)cc(C(C)(C)C)c2Op2oc3ccccc3c3ccccc3o2)c(Op2oc3ccccc3c3ccccc3o2)c(C(C)(C)C)c1 [Ligand F] | – | – | – | 0.12 percent by weight | 0.04 percent by weight | No change | No change
